The subject of experiment [1] is LAPC4 prostate cancer cells, which express the AKT1 E17K allele. Briefly: Antiproliferative effects in LAPC4 cells (CellTiter Glo, 72 h). It is filed as cell-based. To be noted: Homo sapiens, LAPC4, 72 h, read-out: LAPC4 proliferation IC50. On the procedure:
Antiproliferative Effects in LAPC4 Cells.
LAPC4 prostate cancer cells (Klein, K. A. et al. Nat Med 1997, 3, 402-408), which express the AKT1 E17K allele, were grown in IMDM media (Hyclone) supplemented with 12% FBS+1% P/S. To assess compound effects on growth, 1,000 cells/well were seeded in 384 well assay plates, incubated with compound dilutions dissolved in DMSO. After 72 h, intracellular ATP content was assessed with CellTiter Glo reagent (Promega) according to the manufacturer's instructions. IC50 values were calculated by fitting luminescence values to a log(inhibitor) vs. response Hill equation.

Experiment [2] addresses T1, AKT1 E17K (Homo sapiens, UniProt P31749, E17K).
T1 construct: expressed in transfected cells; host or cells: HEK293
Description: Live cell AKT1 E17K target engagement by NanoBRET competitive probe displacement in HEK293 cells. It is filed as binding. To be noted: 2 h at 37° C. Put shortly: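 Live-cell NanoBRET: HEK293, kinase-NanoLuc fusion, ATP-competitive fluorescent tracer ~EC50, 2 h 37° C, extracellular NanoLuc inhibitor present; IC50 from log(inhibitor)–response Hill fit.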
(Bioluminescence resonance energy transfer reports proximity on the nanometre scale.)

Experiment [3] addresses T2, AKT1 WT (Homo sapiens, UniProt P31749).
T2 construct: expressed in transfected cells; host or cells: HEK293
Briefly: Live cell AKT1 WT target engagement by NanoBRET competitive probe displacement in HEK293 cells. To be noted: 2 h at 37° C., read-out: AKT1 WT IC50. It is filed as binding.

The target in experiment [4] is T3, AKT2 (Homo sapiens, UniProt P31751).
T3 construct: expressed in transfected cells; host or cells: HEK293
Description: Live cell AKT2 target engagement by NanoBRET competitive probe displacement in HEK293 cells. To be noted: 2 h at 37° C., read-out: AKT2 IC50. It is filed as binding.

The mark [5] stands for this setting: NanoBRET live cell target engagement, HEK293 cells.
Setting [6] is: NanoBRET competitive probe displacement, live HEK293 cells.

The values below come from patent publication US12624034B2, “Non-covalent modifiers of AKT1 and uses thereof” (Terremoto Biosciences, Inc., priority 2023, dated 2026).

Read-outs that look alike come from different tables or passages of the source.

T3 sequence (P31751 whole entry): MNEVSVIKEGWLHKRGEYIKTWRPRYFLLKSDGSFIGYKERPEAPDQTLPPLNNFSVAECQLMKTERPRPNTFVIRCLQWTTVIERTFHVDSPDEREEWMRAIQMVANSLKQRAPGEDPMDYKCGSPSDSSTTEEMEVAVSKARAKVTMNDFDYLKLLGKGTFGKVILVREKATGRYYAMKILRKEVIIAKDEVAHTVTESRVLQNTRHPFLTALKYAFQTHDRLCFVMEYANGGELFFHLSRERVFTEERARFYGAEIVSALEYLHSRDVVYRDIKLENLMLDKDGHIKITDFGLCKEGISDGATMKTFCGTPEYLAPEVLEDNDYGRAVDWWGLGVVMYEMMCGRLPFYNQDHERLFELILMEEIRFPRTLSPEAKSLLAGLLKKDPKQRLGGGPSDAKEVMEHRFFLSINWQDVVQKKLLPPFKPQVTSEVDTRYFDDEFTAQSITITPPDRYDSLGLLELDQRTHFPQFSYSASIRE
T2 sequence (P31749 whole entry): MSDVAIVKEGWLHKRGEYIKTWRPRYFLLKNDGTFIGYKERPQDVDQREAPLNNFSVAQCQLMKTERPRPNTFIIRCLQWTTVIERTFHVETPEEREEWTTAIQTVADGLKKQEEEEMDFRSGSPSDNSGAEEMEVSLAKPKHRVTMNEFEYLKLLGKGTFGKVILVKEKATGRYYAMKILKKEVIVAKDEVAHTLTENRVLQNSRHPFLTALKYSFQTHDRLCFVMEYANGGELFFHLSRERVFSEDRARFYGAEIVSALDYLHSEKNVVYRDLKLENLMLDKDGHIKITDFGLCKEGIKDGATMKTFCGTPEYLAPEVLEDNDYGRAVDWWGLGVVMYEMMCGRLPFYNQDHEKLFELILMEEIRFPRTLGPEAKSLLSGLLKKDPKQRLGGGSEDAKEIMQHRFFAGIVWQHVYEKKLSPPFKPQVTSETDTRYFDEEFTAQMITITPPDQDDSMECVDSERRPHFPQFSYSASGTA
T1 sequence (P31749 whole entry E17K): as the sequence (P31749 whole entry) above, with E17K counted along it

Take `Nc1ncccc1-c1nc2ccc(-n3cccn3)nc2n1-c1ccc2c(c1)CC[C@@H]2NC(=O)c1ccnc(OC(F)(F)F)c1` [Compound 64, (S)—N-(5-(2-(2-aminopyridin-3-yl)-5-(1H-pyrazol-1-yl)-3H-imidazo[4,5-b]pyridin-3-yl)-2,3-dihydro-1H-inden-1-yl)-2-(trifluoromethoxy)isonicotinamide]: the IC50 in experiment [1] worked out at 2620 nM; in experiment [2] (setting [5]) it was 159 nM; in experiment [3] (setting [5]), 4.63 nM; in experiment [4] (setting [5]), 183 nM.
For the molecule `Nc1ncccc1-c1nc2ccc(-n3cccn3)nc2n1-c1ccc2c(c1)CC[C@@H]2NC(=O)c1ccccn1` [Compound 36, N-[(1S)-5-[2-(2-aminopyridin-3-yl)-5-(pyrazol-1-yl)imidazo[4,5-b]pyridin-3-yl]-2,3-dihydro-1H-inden-1-yl]pyridine-2-carboxamide], the IC50 in experiment [1] turned out to be 3460 nM; in experiment [2] (setting [5]) it was 164 nM; in experiment [3] (setting [5]) it was 58.6 nM; in experiment [4] (setting [5]) it was 1250 nM.
The corresponding values for `Nc1ncccc1-c1nc2ccc(-n3cccn3)nc2n1-c1ccc2c(c1)CC[C@@H]2NC(=O)c1cnc(C(F)F)c(F)c1` [Compound 62, (S)—N-(5-(2-(2-aminopyridin-3-yl)-5-(1H-pyrazol-1-yl)-3H-imidazo[4,5-b]pyridin-3-yl)-2,3-dihydro-1H-inden-1-yl)-6-(difluoromethyl)-5-fluoronicotinamide] are 692 nM, 64 nM, 4.97 nM and 59.5 nM.
`Nc1ncccc1-c1nc2ccc(-n3cccn3)nc2n1-c1ccc2c(c1)CC[C@@H]2NC(=O)c1cnccn1` [Compound 19, (S)—N-(5-(2-(2-aminopyridin-3-yl)-5-(1H-pyrazol-1-yl)-3H-imidazo[4,5-b]pyridin-3-yl)-2,3-dihydro-1H-inden-1-yl)pyrazine-2-carboxamide]: the IC50 in experiment [1] is 8030 nM; in experiment [2] (setting [5]), 167 nM; in experiment [3] (setting [5]), 43.5 nM; in experiment [4] (setting [5]), 2120 nM.
`Nc1ncccc1-c1nc2ccc(-n3nccn3)nc2n1-c1ccc2c(c1)CC[C@@H]2NC(=O)c1ccnc2occc12` [Compound 379]: the IC50 worked out at 4240 nM in experiment [1], 248 nM in experiment [2] (setting [5]), 12.6 nM in experiment [3] (setting [5]) and 1280 nM in experiment [4] (setting [5]).
For the molecule `Nc1ncccc1-c1nc2ccc(-n3cccn3)nc2n1-c1ccc2c(c1)CC[C@@H]2NC(=O)c1ccc2oncc2c1` [Compound 20, (S)—N-(5-(2-(2-aminopyridin-3-yl)-5-(1H-pyrazol-1-yl)-3H-imidazo[4,5-b]pyridin-3-yl)-2,3-dihydro-1H-inden-1-yl)benzo[d]isoxazole-5-carboxamide], the IC50 came to 8490 nM in experiment [1], 137 nM in experiment [2] (setting [5]), 126 nM in experiment [3] (setting [5]) and 713 nM in experiment [4] (setting [5]).
`Nc1ncccc1-c1nc2ccc(-n3cccn3)nc2n1-c1ccc2c(c1)CC(F)[C@@H]2NC1CCc2cnccc21` (single isomer, unassigned) [Compound 482]: the IC50 in experiment [1] amounted to 827 nM; in experiment [2] (setting [6]) it was 140 nM; in experiment [3] (setting [6]), 5.39 nM; in experiment [4] (setting [6]), 194 nM.
As to `Nc1ncccc1-c1nc2ccc(-n3cccn3)nc2n1-c1ccc2c(c1)CC[C@@H]2NC(=O)c1ccc2[nH]cnc2c1` [Compound 22, (S)—N-(5-(2-(2-aminopyridin-3-yl)-5-(1H-pyrazol-1-yl)-3H-imidazo[4,5-b]pyridin-3-yl)-2,3-dihydro-1H-inden-1-yl)-1H-benzo[d]imidazole-5-carboxamide], the IC50 in experiment [1] was 1260 nM; in experiment [2] (setting [5]), 31.9 nM; in experiment [3] (setting [5]) it was 11.2 nM; in experiment [4] (setting [5]) it was 67.6 nM.
With `Nc1ncccc1-c1nc2ccc(-n3cccn3)nc2n1-c1ccc2c(c1)CC[C@@H]2NC(=O)COc1ccon1` [Compound 5, (S)—N-(5-(2-(2-aminopyridin-3-yl)-5-(1H-pyrazol-1-yl)-3H-imidazo[4,5-b]pyridin-3-yl)-2,3-dihydro-1H-inden-1-yl)-2-(isoxazol-3-yloxy)acetamide], the IC50 is 9300 nM in experiment [1], greater than 1000 nM in experiment [2] (setting [5]), 129 nM in experiment [3] (setting [5]) and 1410 nM in experiment [4] (setting [5]).
